Test results as given in patent US20050032873A1, “3-Amino chroman and 2-amino tetralin derivatives” (Wyeth, priority 2003, published 2005).
Where two headings read alike, the source gives them in different places.

How the values were obtained:
serotonin transporter = target: T1, serotonin transporter (Rattus norvegicus, UniProt P31652); assay: 5-HT transporter affinity: displacement of 3H-paroxetine from male rat cortical membranes; format: binding; settings: displacement of 3H-paroxetine; male rat cortical membranes; read-out: 5-HT Transporter Affinity Ki
T1 construct: displace ^3H-paroxetine from male rat cortical membranes; from tissue; host or cells: male rat cortical membranes

[1] = target: T2, cloned human 5-HT1A receptors (Homo sapiens, UniProt P08908); assay: 35S-GTPγS binding assay, 5-HT1A function; format: biochemical; settings: for IC50: antagonist potency, reversal of 8-OH-DPAT, read-out: 5-HT1A Function GTPγS IC50; for EC50: agonist potency
T2 construct: expressed in transfected cells
T2 sequence (P08908 1-422): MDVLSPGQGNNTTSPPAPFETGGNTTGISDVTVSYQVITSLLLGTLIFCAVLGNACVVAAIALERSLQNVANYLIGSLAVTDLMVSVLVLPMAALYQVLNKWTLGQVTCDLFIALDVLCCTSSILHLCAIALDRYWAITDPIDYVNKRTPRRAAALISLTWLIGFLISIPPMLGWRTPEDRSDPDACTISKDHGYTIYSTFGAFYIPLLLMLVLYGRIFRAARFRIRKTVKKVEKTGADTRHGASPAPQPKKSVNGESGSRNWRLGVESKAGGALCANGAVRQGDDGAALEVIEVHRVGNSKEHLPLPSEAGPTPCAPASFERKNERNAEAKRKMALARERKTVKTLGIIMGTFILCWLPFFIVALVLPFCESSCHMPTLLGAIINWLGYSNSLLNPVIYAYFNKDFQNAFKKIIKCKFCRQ

5-HT1A receptor [2] = target: T3, 5-HT1A receptor (Homo sapiens, UniProt P08908); assay: cAMP accumulation assay, 5-HT1A function; format: cell-based; settings: for IC50: cells marked IC50 (antagonist), read-out: 5-HT1A Function cAMP IC50; for Emax: in brackets after EC50 or IC50, read-out: 5-HT1A Function cAMP (Emax); for EC50: cells marked EC50 (agonist)
T3 sequence (P08908 1-422): T2 sequence (P08908 1-422)

5-HT1A receptor [3] = target: T3, 5-HT1A receptor; assay: 5-HT1A receptor affinity: displacement of [3H] 8-OH-DPAT; format: binding; design: expressed in transfected cells; settings: displacement of [3H] 8-OH-DPAT; CHO cells stably transfected with human 5-HT1A receptors; read-out: 5-HT1A Receptor Affinity Ki
[4] = maximum inhibitory effect, in brackets after IC50, read-out: 5-HT1A Function GTPγS (Imax)
[5] = maximum stimulatory effect, in brackets after EC50, read-out: 5-HT1A Function GTPγS (Emax)

T1 sequence (P31652 whole entry): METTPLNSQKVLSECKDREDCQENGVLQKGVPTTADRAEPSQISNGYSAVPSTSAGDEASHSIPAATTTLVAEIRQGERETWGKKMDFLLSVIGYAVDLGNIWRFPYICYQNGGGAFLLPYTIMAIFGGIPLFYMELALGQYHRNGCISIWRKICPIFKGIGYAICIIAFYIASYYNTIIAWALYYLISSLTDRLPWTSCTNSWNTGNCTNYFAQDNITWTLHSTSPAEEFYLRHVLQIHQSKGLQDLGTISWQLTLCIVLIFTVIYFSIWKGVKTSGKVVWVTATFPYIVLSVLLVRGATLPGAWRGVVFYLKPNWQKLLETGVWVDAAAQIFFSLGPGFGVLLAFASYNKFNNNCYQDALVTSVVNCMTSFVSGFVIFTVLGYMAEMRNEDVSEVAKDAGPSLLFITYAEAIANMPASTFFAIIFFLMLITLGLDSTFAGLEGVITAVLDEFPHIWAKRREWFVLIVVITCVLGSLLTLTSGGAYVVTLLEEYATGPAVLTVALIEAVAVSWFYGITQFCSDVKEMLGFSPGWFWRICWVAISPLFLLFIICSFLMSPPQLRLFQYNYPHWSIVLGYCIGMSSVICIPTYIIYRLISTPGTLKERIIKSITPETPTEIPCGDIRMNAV

| SMILES | EC50 [1] | Emax [1, 5] | EC50 (5-HT1A receptor [2]) | Ki (serotonin transporter) | IC50 [1] | Emax [1, 4] | IC50 (5-HT1A receptor [2]) | Emax (5-HT1A receptor [2]) | Ki (5-HT1A receptor [3]) |
| --- | --- | --- | --- | --- | --- | --- | --- | --- | --- |
| CCCN(CCc1c[nH]c2ccc(F)cc12)C1COc2c(F)ccc(C(N)=O)c2C1 (centres unmarked) [Compound 77, 8-fluoro-3-[[2-(5-fluoro-1H-indol-3-yl)ethyl](propyl)amino]chromane-5-carboxamide] |  |  |  | 60.5 nM | 2570 nM | 100% | 68.3 nM | 0% | 18 nM |
| NC(=O)c1ccc(F)c2c1CC(N(CCc1c[nH]c3ccc(F)cc13)CC1CC1)CO2 (centres unmarked) [Compound 78, 3-{(cyclopropylmethyl)[2-(5-fluoro-1H-indol-3-yl)ethyl]amino}-8-fluorochromane-5-carboxamide] |  |  |  | 83 nM | 384 nM | 100% | 97.1 nM | 0% | 6.6 nM |
| CCN(CCCCc1c[nH]c2ccc(F)cc12)C1COc2c(F)ccc(C(N)=O)c2C1 (centres unmarked) [Compound 80, 3-{ethyl[4-(5-fluoro-1H-indol-3-yl)butyl]amino}-8-fluorochromane-5-carboxamide] |  |  |  | 0.15 nM | 1000 nM | 100% | 1370 nM | 0% | 312 nM |
| CCCN(CCCCc1c[nH]c2ccc(F)cc12)C1COc2c(F)ccc(C(N)=O)c2C1 (centres unmarked) [Compound 81, 8-fluoro-3-[[4-(5-fluoro-1H-indol-3-yl)butyl](propyl)amino]chromane-5-carboxamide] |  |  |  | 6.15 nM | 775 nM | 100% | 125 nM | 0% | 4.64 nM |
| NC(=O)c1ccc(F)c2c1CC(N(CCCCc1c[nH]c3ccc(F)cc13)CC1CC1)CO2 (centres unmarked) [Compound 82, 3-{(cyclopropylmethyl)[4-(5-fluoro-1H-indol-3-yl)butyl]amino}-8-fluorochromane-5-carboxamide] |  |  |  | 3.51 nM | 162 nM | 100% | 51.1 nM | 0% | 1.64 nM |
| NC(=O)c1ccc(F)c2c1CC(N(CCCCc1c[nH]c3ccc(F)cc13)C1CCC1)CO2 (centres unmarked) [Compound 83, 3-{cyclobutyl[4-(5-fluoro-1H-indol-3-yl)butyl]amino}-8-fluorochromane-5-carboxamide] |  |  |  | 14.6 nM | 351 nM | 100% | 23.6 nM | 0% | 4.8 nM |
| NC(=O)c1ccc(F)c2c1C[C@@H](N(CCCCc1c[nH]c3ccc(F)cc13)C1CCC1)CO2 [Compound 83a, (3R)-3-{cyclobutyl[4-(5-fluoro-1H-indol-3-yl)butyl]amino}-8-fluorochromane-5-carboxamide] |  |  |  | 13.2 nM | 505 nM | 100% | 173 nM | 0% | 3.43 nM |
| NC(=O)c1ccc(F)c2c1C[C@H](N(CCCCc1c[nH]c3ccc(F)cc13)C1CCC1)CO2 [Compound 83b, (3S)-3-{cyclobutyl[4-(5-fluoro-1H-indol-3-yl)butyl]amino}-8-fluorochromane-5-carboxamide] |  |  |  | 16.9 nM | 2500 nM | 100% | 5800 nM | 0% | 111 nM |
| CNC(=O)c1ccc(F)c2c1CC(N(CCc1c[nH]c3ccc(F)cc13)CC1CC1)CO2 (centres unmarked) [Compound 86, 3-{(cyclopropylmethyl)[2-(5-fluoro-1H-indol-3-yl)ethyl]amino}-8-fluoro-N-methylchromane-5-carboxamide] |  |  |  | 70 nM | 773 nM | 100% | 229 nM | 0% | 8.82 nM |
| CNC(=O)c1ccc(F)c2c1CC(N(CCc1c[nH]c3ccc(F)cc13)C1CCC1)CO2 (centres unmarked) [Compound 87, 3-{cyclobutyl[2-(5-fluoro-1H-indol-3-yl)ethyl]amino}-8-fluoro-N-methylchromane-5-carboxamide] |  |  |  | 26.5 nM | 513 nM | 100% | 172 nM | 0% | 7.01 nM |
| CCCN(CCCc1c[nH]c2ccc(F)cc12)C1COc2c(F)ccc(C(=O)NC)c2C1 (centres unmarked) [Compound 90, 8-fluoro-3-[[3-(5-fluoro-1H-indol-3-yl)propyl](propyl)amino]-N-methylchromane-5-carboxamide] | 34.5 nM | 47% |  | 3.37 nM | 617 nM | 33% | 73.8 nM | 0% | 0.81 nM |
| CNC(=O)c1ccc(F)c2c1CC(N(CCCc1c[nH]c3ccc(F)cc13)CC1CC1)CO2 (centres unmarked) [Compound 91, 3-{(cyclopropylmethyl)[3-(5-fluoro-1H-indol-3-yl)propyl]amino}-8-fluoro-N-methylchromane-5-carboxamide] |  |  |  | 3.33 nM | 191 nM | 77% | 88.3 nM | 0% | 2.28 nM |
| CCCN(CCCCc1c[nH]c2ccc(F)cc12)C1COc2c(F)ccc(C(=O)NC)c2C1 (centres unmarked) [Compound 93, 8-fluoro-3-[[4-(5-fluoro-1H-indol-3-yl)butyl](propyl)amino]-N-methylchromane-5-carboxamide] |  |  |  | 2.49 nM | 304 nM | 100% | 228 nM | 0% | 7.67 nM |
| CNC(=O)c1ccc(F)c2c1CC(N(CCCCc1c[nH]c3ccc(F)cc13)CC1CC1)CO2 (centres unmarked) [Compound 94, 3-{(cyclopropylmethyl)[4-(5-fluoro-1H-indol-3-yl)butyl]amino}-8-fluoro-N-methylchromane-5-carboxamide] |  |  |  | 1.27 nM | 141 nM | 100% | 58.4 nM | 0% | 1.66 nM |
| CNC(=O)c1ccc(F)c2c1CC(N(CCCCc1c[nH]c3ccc(F)cc13)C1CCC1)CO2 (centres unmarked) [Compound 95, 3-{cyclobutyl[4-(5-fluoro-1H-indol-3-yl)butyl]amino}-8-fluoro-N-methylchromane-5-carboxamide] |  |  |  | 6.4 nM | 422 nM | 100% | 121 nM | 0% | 10 nM |
| N#Cc1ccc2[nH]cc(CCCN(C3CCC3)[C@H]3COc4c(F)ccc(C(N)=O)c4C3)c2c1 [Compound 97b, (3R)-3-[[3-(5-cyano-1H-indol-3-yl)propyl](cyclobutyl)amino]-8-fluorochromane-5-carboxamide] |  |  |  | 2.44 nM | 317 nM | 100% | 71 nM | 0% | 1.98 nM |
| N#Cc1ccc2[nH]cc(CCCN(CC3CC3)[C@@H]3COc4c(F)ccc(C(N)=O)c4C3)c2c1 [Compound 98a, (3S)-3-[[3-(5-cyano-1H-indol-3-yl)propyl](cyclopropylmethyl)amino]-8-fluorochromane-5-carboxamide] |  |  |  | 3.2 nM | 586 nM | 51% | 113 nM | 0% | 4.72 nM |
| N#Cc1ccc2[nH]cc(CCCN(CC3CC3)[C@H]3COc4c(F)ccc(C(N)=O)c4C3)c2c1 [Compound 98b, (3R)-3-[[3-(5-cyano-1H-indol-3-yl)propyl](cyclopropylmethyl)amino]-8-fluorochromane-5-carboxamide] |  |  |  | 5.5 nM | 456 nM | 99% | 162 nM | 0% | 6.8 nM |
| COc1cccc2c(CCCN(C3CCC3)C3COc4c(F)ccc(C(N)=O)c4C3)c[nH]c12 (centres unmarked) [Compound 102, 3-{cyclobutyl[3-(7-methoxy-1H-indol-3-yl)propyl]amino}-8-fluorochromane-5-carboxamide] |  |  |  | 1110 nM | 557 nM | 100% | 270 nM | 0% | 3.22 nM |
| COc1cccc2c(CCCN(CC3CC3)C3COc4c(F)ccc(C(N)=O)c4C3)c[nH]c12 (centres unmarked) [Compound 103, 3-{(cyclopropylmethyl)[3-(7-methoxy-1H-indol-3-yl)propyl]amino}-8-fluorochromane-5-carboxamide] |  |  |  | 976 nM | 1000 nM | 95% | 172 nM | 0% | 3.54 nM |

Now from value to molecule, other results behind:

| EC50 [1] | Emax [1, 5] | EC50 (5-HT1A receptor [2]) | SMILES | Ki (serotonin transporter) | IC50 [1] | Emax [1, 4] | IC50 (5-HT1A receptor [2]) | Emax (5-HT1A receptor [2]) | Ki (5-HT1A receptor [3]) |
| --- | --- | --- | --- | --- | --- | --- | --- | --- | --- |
| 67.6 nM | 100% | 61.5 nM | CCCN(CCCc1c[nH]c2c(OC)cccc12)C1COc2c(F)ccc(C(N)=O)c2C1 (centres unmarked) [Compound 100, 8-fluoro-3-[[3-(7-methoxy-1H-indol-3-yl)propyl](propyl)amino]chromane-5-carboxamide] | 141 nM |  |  |  | 87% | 3.85 nM |
| 103 nM | 99% | 45.1 nM | CCN(CCCc1c[nH]c2c(OC)cccc12)C1COc2c(F)ccc(C(N)=O)c2C1 (centres unmarked) [Compound 101, 3-{ethyl[3-(7-methoxy-1H-indol-3-yl)propyl]amino}-8-fluorochromane-5-carboxamide] | 642 nM |  |  |  | 68.5% | 0.5 nM |
